From patent publication US20220257552A1, “METHODS OF PRESCREENING AND TREATING BREAST CANCERS WITH SELECTIVE ANDROGEN RECEPTOR MODULATORS” (priority 2021, published 2022)

Key:
Type in all cases: cell-based
PR = molecular target: T1, PR (Rattus norvegicus, UniProt Q63449); assay: PR transactivation in HEK-293 cells
T1 construct: expressed in transfected cells
T1 sequence (Q63449 1-923): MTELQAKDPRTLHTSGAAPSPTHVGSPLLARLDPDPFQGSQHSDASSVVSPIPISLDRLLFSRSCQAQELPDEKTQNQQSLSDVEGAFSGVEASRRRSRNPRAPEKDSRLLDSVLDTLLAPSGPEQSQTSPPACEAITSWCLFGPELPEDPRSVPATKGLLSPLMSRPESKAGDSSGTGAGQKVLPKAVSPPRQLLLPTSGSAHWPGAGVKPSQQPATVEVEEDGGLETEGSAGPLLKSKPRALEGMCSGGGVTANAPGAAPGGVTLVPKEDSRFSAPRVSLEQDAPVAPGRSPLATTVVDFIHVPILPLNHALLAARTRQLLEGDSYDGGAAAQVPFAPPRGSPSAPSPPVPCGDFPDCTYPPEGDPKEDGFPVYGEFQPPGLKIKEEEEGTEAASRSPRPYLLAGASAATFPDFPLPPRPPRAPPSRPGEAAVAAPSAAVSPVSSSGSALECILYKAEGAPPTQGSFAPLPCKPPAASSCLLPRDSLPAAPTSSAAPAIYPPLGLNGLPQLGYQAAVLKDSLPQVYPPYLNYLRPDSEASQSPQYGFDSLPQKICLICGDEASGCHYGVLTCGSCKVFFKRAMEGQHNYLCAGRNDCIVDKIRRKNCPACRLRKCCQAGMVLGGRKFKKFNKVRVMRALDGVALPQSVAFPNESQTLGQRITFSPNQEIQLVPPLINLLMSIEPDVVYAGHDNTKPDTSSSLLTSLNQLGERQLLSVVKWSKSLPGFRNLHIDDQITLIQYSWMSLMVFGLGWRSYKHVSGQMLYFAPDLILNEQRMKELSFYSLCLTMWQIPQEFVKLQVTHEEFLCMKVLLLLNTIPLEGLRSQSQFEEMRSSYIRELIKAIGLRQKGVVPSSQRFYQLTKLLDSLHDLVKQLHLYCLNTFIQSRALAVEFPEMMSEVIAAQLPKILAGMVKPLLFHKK
Method: (§1) Rat GR, MR, PR, ER-α and ER-β were individually cloned into a pCR3.1 vector backbone. Sequencing was performed to verify the absence of any mutations. HEK-293 cells were plated at 90,000 cells per well of a 24 well plate in Dulbecco's Minimal Essential Media supplemented with 5% charcoal-stripped FBS. […] Luciferase assays were performed 48 h after transfection. Transcriptional activation values are represented as firefly luciferase normalized to renilla luciferase.

MR = molecular target: T2, MR (Rattus norvegicus, UniProt P22199); assay: MR transactivation in HEK-293 cells; conditions: 1 nM
T2 construct: expressed in transfected cells
T2 sequence (P22199 1-981): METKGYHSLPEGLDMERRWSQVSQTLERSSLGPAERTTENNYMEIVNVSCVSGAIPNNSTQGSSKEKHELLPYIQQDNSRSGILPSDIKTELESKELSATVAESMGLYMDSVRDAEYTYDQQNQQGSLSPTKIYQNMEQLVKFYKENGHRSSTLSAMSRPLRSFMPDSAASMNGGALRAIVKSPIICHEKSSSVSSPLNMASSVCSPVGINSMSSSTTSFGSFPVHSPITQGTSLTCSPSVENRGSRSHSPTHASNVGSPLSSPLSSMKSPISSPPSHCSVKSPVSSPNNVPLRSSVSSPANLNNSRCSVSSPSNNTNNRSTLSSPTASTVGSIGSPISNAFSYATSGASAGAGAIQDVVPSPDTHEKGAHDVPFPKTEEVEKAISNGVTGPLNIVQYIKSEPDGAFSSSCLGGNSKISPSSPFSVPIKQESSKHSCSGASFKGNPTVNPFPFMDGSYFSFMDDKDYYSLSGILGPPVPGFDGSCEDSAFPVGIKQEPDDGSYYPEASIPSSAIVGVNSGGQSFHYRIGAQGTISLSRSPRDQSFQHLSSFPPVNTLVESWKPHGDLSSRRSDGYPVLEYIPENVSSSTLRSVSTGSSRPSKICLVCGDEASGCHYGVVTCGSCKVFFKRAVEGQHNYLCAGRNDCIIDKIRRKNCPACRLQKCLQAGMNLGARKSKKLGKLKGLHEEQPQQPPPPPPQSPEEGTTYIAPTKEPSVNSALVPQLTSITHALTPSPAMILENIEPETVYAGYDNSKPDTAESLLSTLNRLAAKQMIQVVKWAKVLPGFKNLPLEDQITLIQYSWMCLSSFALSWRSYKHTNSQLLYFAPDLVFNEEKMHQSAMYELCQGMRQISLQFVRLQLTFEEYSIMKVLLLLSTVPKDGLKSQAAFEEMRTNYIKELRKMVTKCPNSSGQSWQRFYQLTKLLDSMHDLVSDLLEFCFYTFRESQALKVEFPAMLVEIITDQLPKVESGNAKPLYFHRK
Method: as §1

HCI-13 tumor fragments = assay: HCI-13 ex vivo sponge culture, real time PCR; conditions: for reversal of pS2 gene expression inhibited by Formula IX: 100 nM PMA or 100 ng/mL EGF before 1 μM Formula IX
Method: HCI-13 tumors grown in female mice were allowed to reach 500-1000 mm^3 before the animals were sacrificed and the tumors were excised to be used for sponge culture. Patient specimens frozen in liquid nitrogen in freezing medium were used for sponge culture. […] Tumors were sliced into small pieces (˜1 mm^3) and incubated on pre-soaked gelatin sponges (5 fragments/sponge) in 12 well plates containing 1.5 mL medium (MEM+10% FBS+2 mM L-glutamine+10 μg/mL insulin+10 μg/mL hydrocortisone+penicillin:streptomycin). The cultures were performed in triplicates for HCI-13 and singly for patient specimens. Pooled samples (n=5/sponge) from each sponge constituted one sample. Tissues were harvested after 3 days of treatment, RNA extracted, and expression of various genes measured. Although the same procedure was adopted for specimens obtained from breast cancer patients, the specimens were cultured singly (n=5/sponge=one sample) and not in triplicates as performed for HCI-13.

MDA-MB-231-AR cells = assay: Morphology of MDA-MB-231-AR cells; conditions: 3 days
Method: MDA-MB-231 cells were stably transfected with AR using lentivirus. […] Live cells were visualized using a light-microscope and photographed. The cells were imaged at the same magnification and under the same microscopic conditions.
MDA-MB-231 cells were stably transfected with AR using lentivirus and were treated with vehicle or AR agonists at the indicated concentrations. At the end of 3 days of incubation, the cells were imaged under a microscope (40×).

[1] = system: MDA-MB-231 triple negative breast cancer cells; assay: SRB cell viability, MDA-MB-231 cells infected with AR adenovirus
Method: (§2) The SRB assay was used to determine cell number during cytotoxocity experiments. The following protocol was used: • 1. Cells were detached with 0.25% trypsin. • 2. Experimental cultures were cultured in 96-well microtiter plates (200 μL growth medium per well; 1,000-200,000 cells per well). • 3. Cultures were fixed with 50 μL 50% TCA (4° C.). (see cell fixation protocol for details). • 4. Fixed cells were stained with 50 μL 0.4% (wt/vol) SRB in 1% acetic acid for 10 minutes. • 5. SRB was removed and the cultures were quickly* rinsed 5 times with 1% acetic acid to remove unbound dye.** • 6. Cultures were air-dried overnight until there was no visible moisture. • 7. The cellular protein-bound SRB was dissolved with 200 μL unbuffered Tris base (10 mM, pH 10.5) for 30 minutes on a rocking platform shaker. • 8. Absorbance was read at 540 nm. * quickly performing rinsing process was to prevent desorption of protein-bound SRB ** completely removed residual wash solution by sharply flicking plates over sink.
(§3) The following protocol was used for fixing cells: • a. 50 μL of 50% TCA (4° C.) was gently layered on the top of growth medium in each well to make a final TCA concentration of 10%. • b. Cultures were incubated at 4° C. for 1 hour. • c. Cultures were washed 5 times with tap water to remove TCA, growth medium, low-molecular-weight metabolites, and serum protein. • d. Plates were air-dried until there was no visible moisture.
Cells were treated in charcoal stripped FBS (FIGS. 4A, 4C, 4E, 4G, 4I, 4K, 4M and 4O) or full serum (FIGS. 4B, 4D, 4F, 4H, 4J, 4L, 4N and 4P) for 3 days, fixed and stained with […] (SRB) to measure cell viability. Anti-proliferative IC50 values were calculated in breast cancer cells and compared to transactivation values, i.e., EC50 (agonists) and IC50 (antagonists) values, generated in HEK-293 cells.

[2] = system: HCC-38 triple negative breast cancer cells; assay: SRB cell viability, HCC-38 cells infected with AR adenovirus; conditions: 3 days
Method: as §2
as §3, with “Plates were air-dried until there was no visible moisture.” left out

Work on `CC#C[C@]1(O)CC[C@H]2[C@@H]3CCC4=CC(=O)CCC4=C3[C@@H](c3ccc(N(C)C)cc3)C[C@@]21C` [RU486, reference compound] yielded an IC50 (PR) of 0.048 nM.

In the case of `C[C@]12CCC(=O)C=C1CC[C@@H]1[C@@H]2[C@@H](O)C[C@]2(C=O)[C@@H](C(=O)CO)CC[C@@H]12` [aldosterone, reference compound], the “MR activity, induction” value (MR) is reported as 60 fold.

In the case of `CCCCCCCCCCCCCC(=O)O[C@@H]1[C@@H](C)[C@@]2(O)[C@@H](C=C(CO)C[C@]3(O)C(=O)C(C)=C[C@@H]23)[C@@H]2C(C)(C)[C@]12OC(C)=O` [PMA, phorbol 12-myristate 13-acetate], the “reversal of pS2 gene expression inhibited by Formula IX” value (HCI-13 tumor fragments) is reported as “completely reversed”.

EGF: epidermal growth factor was tested, and the “reversal of pS2 gene expression inhibited by Formula IX” value (HCI-13 tumor fragments) was “only marginally reversed”.

For `CC(=O)[C@H]1CC[C@H]2[C@@H]3CCC4=CC(=O)CC[C@]4(C)[C@H]3CC[C@]12C` [Progesterone, progesterone, reference compound], the PR activation (PR; 1 nM) was 23 folds.

Compound `C[C@@](O)(COc1ccc(C#N)cc1)C(=O)Nc1ccc(C#N)c(C(F)(F)F)c1` [R-enantiomer of Formula IX, (R)—N-(4-cyano-3-(trifluoromethyl)phenyl)-3-(4-cyanophenoxy)-2-hydroxy-2-methylpropanamide] has an IC50 (PR) of 1690 nM.

In the case of `C[C@]12CCC(=O)C[C@@H]1CC[C@@H]1[C@@H]2CC[C@]2(C)[C@@H](O)CC[C@@H]12` [DHT, 5α-dihydrotestosterone, reference compound], the cell morphology (MDA-MB-231-AR cells) is reported as “altered the morphology into a more anchored phenotype”, the “inhibition of ER-induced pS2 and PR gene expression” value (HCI-13 tumor fragments; 10 nM DHT, 1 μM Formula IX, 100 nM fulvestrant, 3 days) is reported as “effective” and the “AR-target gene FKBP5 expression” value (HCI-13 tumor fragments; 3 days) is reported as “induced”. The MKI67 expression (HCI-13 tumor fragments; 3 days) was “inhibited”, the “growth inhibitory effects in the presence of bicalutamide” value ([1]; AR-positive cells, 10 μM bicalutamide) was “weakened growth inhibitory effects” and the cell growth ([1]; cells with AR, 3 days, SRB) was “inhibited”. The cell growth [2] was “inhibited”.
